These results are taken from patent US20240139149A1, “THERAPEUTIC USES OF UROLITHIN DERIVATIVES” (Vandria SA, priority 2022, published 2024).

In series [1] the test system is splenic murine T cells. Briefly: Murine T cells stimulated with αCD3/αCD28 in presence of UA. Type of series: cell-based. Here is the method:
Splenic murine T cells were isolated from mice aged 6-20 weeks by negative selection with EasySep mouse T cell isolation kit (Stem cell) according to the manufacturer's instructions. To monitor T cell proliferation, purified T cells were loaded with CellTrace Violet (C34557 ThermoFisher Scientific). T cell activation was initiated using αCD3/CD28 activation beads (11456D; ThermoFisher Scientific) at a ratio of 25 μl dynabeads per 0.5×106 T-cells. Cells were activated with 25-50 μM Urolithin A (Tocris) or DMSO in T cell activation Medium (RPMI (ThermoFisher Scientific) 10% FBS (South America origin), 10 mM Hepes (Sigma), 1×Non-Essential Amino Acid, 1 mM Sodium Pyruvate, 50 µM β-Mercaptoethanol, 100 U/mL penicillin, 100 μg/mL streptomycin and 2 mM Glutamax (ThermoFisher Scientific) for the indicated durations. In selected experiments, cells were stimulated in the presence of inhibitors, namely TCFli (ICG-001; SelleckChem; […]) and PGC-lai (SR-18292, Sigma-Aldrich; […]). For subsequent analysis, activating beads were magnetically removed prior antibody staining. For human T cells, peripheral blood mononuclear cells were purified with a Ficoll-Paque (GE healthcare) gradient. T cells were enriched with EasySep Human T Cell Isolation Kit (StemCell) and activated with dynabead Human T-Activator CD3/CD28 for T Cell Expansion and Activation Kit (11131D; ThermoFisher Scientific), similar to murine T cell stimulation. When the subsequent activation and expansion of CAR T cells was studied, plates were coated with 1 μg/mL anti-human CD3 (αCD3; clone OKT3) and thawed PBMC were cultivated with […] anti-human CD28 (αCD28; 15E8, both Miltenyi Biotec) containing media for three days. (NutriT media (4Cell® Nutri-T media (Sartorius) containing 0.5% penicillin/streptomycin) supplemented with IL-7 (25 U/mL) and IL-15 […] (all Miltenyi Biotec)).
Tumors were minced and digested with Tumor & Tissue Dissociation Reagent (BD Horizon) for 30 min. The remaining organ pieces were filtered through a 70 µm cell strainer. Cells were then washed with PBS 1% BSA and 2 mM EDTA. Immune cells were enriched on a 30%/40%/75% Percoll gradient after a 1700 rpm 17 min centrifugation. Then, tumor immune filtrates or activated T cells were stained with Fixable Viability Dye-eF780 (65-0865-14; eBioscience), αCD45-FITC (30-F11; 11-0451-85; eBioscience), αCD11b-BV650 (M1/70; 56340; BD) α-CD11c-BV785 (HL3; 563735; BD), aLy6G-BV605 (53-6.7; 563005; BD), aLy6C-AF700 (HK1.4; 128024; Biolegend), aF4/80-PE (BM8; 12-4801-82, eBioscience), aPD-L1-PECy7 (MIH5; 25-5982-80, eBioscience); or with Fixable Viability Dye-eF780 (ebioscience), αCD45-BV786 (30-F11; 564225; BD), αCD4-BUV496 (GK1.5; 564667; BD), αCD8-BV605 (100744; Biolegend), aPD1-APC (J43; 17-9985-82; eBioscience), aTIM-3-PECy7 (RMT3-23; 119715; Biolegend), aCTLA4-PE (UC10-4B9; 106305; Biolegend) and aLag3-BV421 (C9B7W; 125221, Biolegend); or with Fixable Viability Dye-eF780 (eBioscience), αCD4-FITC (H129.19; 553650; BD), αCD8-APC (53-6.7; 17-0081-83; eBioscience), αCD44-AF400 (IM7; 103026; Biolegend), αCD62L-BV785 (MEL-14; 104440; Biolegend), αSca-1-PerCP-Cy5.5 (D7; 45-5981-82; eBioscience), αCD95-PE (Jo2; 554258; BD); or with Fixable Viability Dye-eF780 (eBioscience), αCD8-BV650 (53-6.7; 563234; BD), αCD4-BUV496 (GK1.5; 564667; BD), αCD127-APC (A7R34; 17-1271-82; eBioscience), αCD95-FITC (SA367H8;152605; Biolegend), αCD44-AF400 (IM7; 103026; Biolegend), αCD62L-BV785 (MEL-14; 104440; Biolegend), αSca-1-PerCP-Cy5.5 (D7; 45-5981-82; eBioscience) followed by intracellular staining of aTCF1-PE (S33-966; 564217; BD), or PGC-1α (sc-518025; D-5; santa cruz), or aCyclinD1 (MA5-28534, DCS-6; Invitrogen) with transcription factor buffer set kit (BD Biosciences). To study cytokine expression, tumor immune infiltrates were stimulated ex vivo with 20 ng/mL PMA and […] Ionomycin (Sigma) for 3 h in T cell activation medium with Brefeldin A (Biolegend). […]

In series [2] the test system is APTK-s.c. tumors. Nature of the series: Subcutaneous APTK organoid tumors, UA diet, with TIL analysis. Type of series: in vivo, mouse.
Experimental: Urolithin A containing diet (2.28 g/kg) or AIN− 93G control food (Brogaarden) were given ad libitum once introduced for experimental purpose at the indicated time.
For subcutaneous colorectal cancers, APTK organoids were mechanistically disrupted, incubated with Accutase to generate a single cell suspension and reconstituted in PBS 20% Matrigel (Corning) for subcutaneous transplantation. Tumor sizes were measured at the indicated time after transplantation and tumor volume quantified as ½(width2×length). Urolithin A or control food regiment were initiated either one week before tumor challenge or 11 days after tumor development. Therapeutic diets were maintained throughout the experiment unless indicated otherwise.
Tumors were minced and digested with Tumor & Tissue Dissociation Reagent (BD Horizon) for 30 min. The remaining organ pieces were filtered through a 70 m cell strainer. Cells were then washed with PBS 1% BSA and 2 mM EDTA. Immune cells were enriched on a 30%/40%/75% Percoll gradient after a 1700 rpm 17 min centrifugation. Then, tumor immune filtrates or activated T cells were stained with Fixable Viability Dye-eF780 (65-0865-14; eBioscience), αCD45-FITC (30-F11; 11-0451-85; eBioscience), αCD11b-BV650 (M1/70; 56340; BD) α-CD11c-BV785 (HL3; 563735; BD), aLy6G-BV605 (53-6.7; 563005; BD), aLy6C-AF700 (HK1.4; 128024; Biolegend), aF4/80-PE (BM8; 12-4801-82, eBioscience), aPD-L1-PECy7 (MIH5; 25-5982-80, eBioscience); or with Fixable Viability Dye-eF780 (ebioscience), αCD45-BV786 (30-F11; 564225; BD), αCD4-BUV496 (GK1.5; 564667; BD), αCD8-BV605 (100744; Biolegend), aPD1-APC (J43; 17-9985-82; eBioscience), aTIM-3-PECy7 (RMT3-23; 119715; Biolegend), aCTLA4-PE (UC10-4B9; 106305; Biolegend) and aLag3-BV421 (C9B7W; 125221, Biolegend); or with Fixable Viability Dye-eF780 (eBioscience), αCD4-FITC (H129.19; 553650; BD), αCD8-APC (53-6.7; 17-0081-83; eBioscience), αCD44-AF400 (IM7; 103026; Biolegend), αCD62L-BV785 (MEL-14; 104440; Biolegend), αSca-1-PerCP-Cy5.5 (D7; 45-5981-82; eBioscience), αCD95-PE (Jo2; 554258; BD); or with Fixable Viability Dye-eF780 (eBioscience), αCD8-BV650 (53-6.7; 563234; BD), αCD4-BUV496 (GK1.5; 564667; BD), αCD127-APC (A7R34; 17-1271-82; eBioscience), αCD95-FITC (SA367H8;152605; Biolegend), αCD44-AF400 (IM7; 103026; Biolegend), αCD62L-BV785 (MEL-14; 104440; Biolegend), αSca-1-PerCP-Cy5.5 (D7; 45-5981-82; eBioscience) followed by intracellular staining of aTCF1-PE (S33-966; 564217; BD), or PGC-1α (sc-518025; D-5; santa cruz), or aCyclinD1 (MA5-28534, DCS-6; Invitrogen) with transcription factor buffer set kit (BD Biosciences). To study cytokine expression, tumor immune infiltrates were stimulated ex vivo with 20 ng/mL PMA and 1 g/mL Ionomycin (Sigma) for 3 h in T cell activation medium with Brefeldin A (Biolegend).
Series [3] concerns mouse T lymphocytes. Briefly: Proportion of mouse T memory stem cells (Tscm). The following applies: 2 μM, 72 h. Format: cell-based. Here is the method: T cells were isolated and stimulated as described in Example 14.
Tscm represent a subset of minimally differentiated T cells, which share a CD44^loCD62L^hi phenotype with naïve T cells, but are phenotypically distinct by expressing high levels of Sca1 (Gattinoni et al., 2009). Tscm are therefore identified as CD44^−CD62L^+Sca1^hi cells.
Flow cytometry and analysis was performed as described in Example 14.

Where [4] appears, read: C57BL/6 mice, s.c. APTK organoids, UA-supplemented diet.

“Also recorded” adds a separate entry of the source.

For the compound `O=c1oc2cc(O)ccc2c2ccc(O)cc12` [UA, Urolithin A], the “lysosome formation in CD8+ T cells” value in series [1] (6 h, UA 50 μM) is given as “enhanced”. Moreover, in series [1] (6 h, UA 50 μM vs vehicle), the “phosphorylation of Stat1” value is listed as “equal phosphorylation”. For the same compound, the Parkin protein expression result in series [1] (24 h, UA 50 μM) was “stabilized”. For the same compound, in series [1] (48 h, UA 50 μM), the “PGC-1α in Pink1−/− or Pgam5−/− CD8+ T cells” value is listed as “failed to enhance” and the “cyclin D1 expression” value was “reduced”. Besides, the “CD8+ T cell division / proliferation” value in series [1] (72 h) is given as “restricted; also recorded: restricts T cell proliferation”. Also, in series [1] (CD8+ T cells, αCD3/αCD28), the “central memory cells (TCM)” value is “reduction”, the “frequency of effector memory cells (TEM)” value was “remained unaltered” and the “naïve CD44loCD62Lhi T cells” value is on record as “significant increase”. Moreover, the “number of CD44-CD62L+Sca1hi TSCM” value in series [1] (CD8+ T cells, αCD3/αCD28, up to 72 hours) is “significantly increased”. The “UA-dependent expansion of CD44-CD62L+Sca1Hi TSCM cells in Pgam5−/− T cells” value in series [1] (Pgam5−/− CD8+ T cells) was “blocked”. Further, in series [1] (Pink1−/− CD8+ T cells, presence of UA), the “TSCM phenotype in Pink1−/− CD8+ T cells” value is “failed to exhibit a TSCM phenotype”. For the same compound, in series [1] (Pink1−/− T cells), the “UA-induced lysosome formation and decrease in mitochondrial content in Pink1−/− T cells” value is listed as “prevented”. Moreover, the “expression of genes that code for immune checkpoints and effector molecules” value in series [1] (RNA sequencing, 48 hours) is reported as “reduced”. In addition, in series [1] (after 6 hours), the β-catenin phosphorylation entry is given as “marked decrease”. Further, the “mitochondrial content in CD8+ T cells” value in series [1] (after 24 hours) is on record as “loss of mitochondrial content in a dose-dependent manner”. The PGC-1α expression entry in series [1] (prolonged UA administration in vitro (48 h, 50 μM)) is given as “marked upregulation”. Moreover, in series [1] (qPCR, 24 h after stimulation), the “transcription of Wnt target genes” value is recorded as “increased transcription”. For the same compound, in series [1] (sub-cellular fractionation immunoblot and immunofluorescence, 6 h), the Pgam5 localization result was “rapidly released into the cytoplasma”. For the same compound, the “T cell death in vitro” value in series [1] (various concentrations of UA) is recorded as “dose-dependent T cell death”. In addition, the “mitochondrial membrane potential in CD8+ T cells” value in series [1] (within six hours after UA administration) is given as “reduction”. Further, the “TSCM formation in CD4+ cells” value in series [1] (αCD3/αCD28) was “did not promote enhanced TSCM formation”. The “differentiation into effector T cells (Granzyme B, IFNγ)” value in series [1] (αCD3/αCD28 beads, 48 h) was “blocked”. In addition, in series [1] (αCD3/αCD28 stimulated T cells, 24 h, UA 50 μM), the “Atg5, Atg7, p62, Lamp2 and Pink1 gene expression” value is “significant upregulation”. In series [2] (setting [4]), the “CD8+ T cell infiltration” value is “enhanced” and the tumor growth entry was “significantly reduced”. For the same compound, the “tumor response in combination with PD-1 blockade” value in series [2] (C57BL/6 mice, s.c. APTK tumors, UA diet plus α-PD-1) was “sensitized APTK tumors to PD-1 blockade”. Besides, the “tumor suppressive effect in Pink1−/− mice” value in series [2] (Pink1−/− mice, s.c. APTK organoids, UA diet) was “abrogated the tumor suppressive effect”. In addition, the “protective effect on tumor growth in Rag1−/− mice” value in series [2] (Rag1−/− mice (no mature T and B cells), s.c. APTK organoids, UA diet) was “abrogated the protective effect”. Further, in series [2] (UA diet vs control diet), the “CD4+ TSCM, dendritic cells, TAMs, MDSC subsets in tumors” value is recorded as “no change”; the “CD8+CD44loCD62LhiSca1hi T cells in APTK-induced tumors” value is “marked increase”; the “TCF1 expression in tumor infiltrating CD8+ T cells” value is given as “increased expression”; the “mitochondrial content in TIL of APTK tumors” value is on record as “increased mitochondrial content”. Also, the “exhaustion markers PD-1, CTLA-4 and Tim3 in CD8+ T cells” value in series [2] (UA-fed mice) was “reduction”. The “TNFα and IFNγ in tumor infiltrating CD8+ T cells” value in series [2] (restimulated with PMA/ionomycin ex vivo) is reported as “stronger induction”.
`O=c1oc2cc(O)ccc2c2ccc(OC3CCOCC3)cc12` [compound 33, 3-hydroxy-8-((tetrahydro-2H-pyran-4-yl)oxy)-6H-benzo[c]chromen-6-one]: the “increase in the percentage of Tscm in CD8+ cells vs DMSO” value in series [3] is given as 81%. Further, the “percentage of Tscm in CD8+ cells” value in series [3] (DMSO 16.7%) was found to be 30.2%.
